Where “and” joins values, the source holds several entries; their conditions need not be identical. Equal entries are not always repeated.
Columns and labels:
Type in all cases: cell-based
Akt3(C119S) = molecular target: T1, Akt3(C119S) (Homo sapiens, UniProt Q9Y243, C119S); test: AKTAR FRET assay in live HEK293T cells; conditions: for Akt3(C119S) activity (FRET) during treatment: 5 μM; for Akt3(C119S) activity (FRET) after drug withdrawal: 24 hours after removal from media
T1 construct: expressed in transfected cells; host or cells: HEK293T
Method: (§1) FIGS. 21C-21D: HEK293T cells were transfected with plasmids encoding AKTAR and Halo-Akt3 (1:1). After 12 hours, cells were treated with MK-2206 (5 μM) or MK-HNE (5 μM). After 24 hours and 48 hours Akt3 activity was measured using ratiometric FRET analysis in live cells. After 48 hours, cells were washed two times with drug-free media containing 10% FBS and allowed to recover in 3% FBS MEM media for another 24 hours, after which time Akt3 activity was assayed using FRET again. wd=withdrawal for 24 hours. […] FIG. 21D is a graph showing quantitation of all data sets for treatment of HEK293T cells expressing Halo-Akt3/AKTAR. […] FIG. 21F is a graph showing quantitation of all data sets for treatment of HEK293T cells expressing Halo-Akt2/AKTAR. […] FIG. 21H is a graph showing quantitation of all data sets for treatment of HEK293T cells expressing Halo-Akt3C119S mutant/AKTAR.
(§2) HEK293T cells were plated in imaging plates at 60% confluence. After 24 hours, cells in each plate were transfected with 1 μg AktAR reporter plasmid and 1 μg plasmid of the designated HaloTag fusion Akt gene in PCS2+8 vector, using TransIT 2020 (6 μL) (FIG. 21B). 12 hours after transfection, cells were treated with 5 μM inhibitor or the equivalent final volume of DMSO in rinse medium containing 3% FBS and incubated for 24 hours before imaging. FRET imaging was performed using a Zeiss LSM 710 confocal microscope as previously described. Briefly, a 458 nm argon laser was used for excitation. The signals in the cyan channel (463-498 nm) and the yellow channel (525-620 nm) were recorded. Cells were then incubated in drug medium for another 24 hours before next imaging. The medium was aspirated and the cells were gently rinsed with 3% FBS in rinse medium twice every 30 min over the next hour, Fresh rinse medium with 3% FBS was added and the cells were imaged again after 24 hours. For quantification, the mean CFP and YFP signal intensity was measured using Image by drawing a freehand circle around the cells, and the ratio image was calculated. Graphing and data analysis (Student's t-test) were performed using Prism software.
(§3) One of the key benefits of covalent inhibition is the ability to uncouple pharmacokinetics from pharmacodynamics. This effect is achieved, because once irreversible inhibition occurs, an irreversible inhibitor will remain bound to its target post clearance of the unbound inhibitor. On the other hand, for a reversible inhibitor, as drug concentration drops, the drug is released from its target and inhibition is lost. This situation can be modeled in cell culture by removal of the drug from the media and measuring changes in activity as a function of time post drug removal. Akt inhibition was assayed using AKTAR (FIG. 21A). This fusion of two fluorescent proteins emits two different frequencies of light when excited with blue light, depending on the activity of Akt. When the construct is selectively phosphorylated by Akt, both blue and green light are emitted, due to fluorescence resonance energy transfer (FRET) from the CFP to the YFP. However, when the protein is not phosphorylated, emission is mainly in the blue channel. Thus the ratio of green to blue emission is a direct readout of Akt activity in live cells.

MDA-MB-468 cells [1] = test: Cell cycle analysis using flow cytometry; conditions: for effect on cell cycle: 72 hours
Method: MDA-MB-468 cells in a 6-well plate at 10% confluence were treated with HNE alkyne or the indicated drug at PI60 or PI80 concentration for 72 hours at 37° C. Negative control contained the equivalent volume of DMSO. Cells were grown and analyzed in separate batches of 1-2 replicates per condition that were run 2-3 times each. Each time the data points were normalized to the control set for each batch. At the indicated time post compound treatment, the culture medium was aspirated and the adherent cells were detached from the plate using trypsin, quenched with complete media, centrifuged (700 g), washed once with PBS, centrifuged (700 g), resuspended in PBS, then fixed with 70% ethanol for 24 hours. The cell suspensions were spun down at 1,000 g and washed with 500 μl of PBS twice. Each cell pellet was treated with 500 μL staining solution containing 50 μl of Ribonuclease A (≥70 Kunitz units/mg proteins, R6513, Sigma-Aldrich) and 50 μl of a propidium iodide (1 mg/ml, Sigma-Aldrich) solution in PBS with 1% BSA. The resulting solution was incubated with agitation at room temperature for 30 min in the dark.
The stained cells were assayed on a BD LSR II flow cytometer. FlowJo® was used to deconvolute the signals. Cells were grouped first by forward and side scatter (area), then that group was regrouped using forward (width) versus forward (area) scatter to give single cells. Cells were than analyzed using cellular DNA content to quantitate the percentage of cells in the respective phases (G1, S, G2/M and sub-G0) of the cell cycle.

Halo-Akt2 = molecular target: T2, Halo-Akt2 (Homo sapiens, UniProt P31751); test: AKTAR FRET assay in live HEK293T cells; conditions: 5 μM, 24 hours
T2 construct: expressed in transfected cells; host or cells: HEK293T
Method: as §1, §2, §3

Halo-Akt3 = molecular target: T3, Halo-Akt3 (Homo sapiens, UniProt Q9Y243); test: AKTAR FRET assay in live HEK293T cells; conditions: for Akt3 activity (green/blue FRET ratio) during treatment: 5 μM, 24 hours
T3 construct: expressed in transfected cells; host or cells: HEK293T
Method: as §1, §2, §3

MDA-MB-468 cells [2] = test: Assay for drug synergism with Akt isoform-specific knockdown; conditions: for Fold Selectivity (MK-FNE vs MK-2206 sensitization by knockdown): 72 hours
Method: MDA-MB-468 cells were plated in a 6-well plate to reach 80% confluence 10 hours post seeding. […] The cells were allowed to grow for 12 hours before addition of an equivalent volume of rinse medium containing varying concentrations of MK-2206, MK-FNE, or DMSO. The cells continued to grow for 72 hours before adding 1/10th volume of AlamarBlue® reagent to culture medium. The fluorescence emission signals at 590 nm were read by Cytation 3 cell imaging multi-mode reader (BioTeK) using an excitation wavelength of 560 nm. Curve fitting and data analysis were performed using Prism software. The effect of the different knockdowns on the drug action was expressed by calculating the fold selectivity (S): […]

[3] = knockdown of Akt3 (approximately 40-60%)

T1 sequence (Q9Y243 whole entry C119S): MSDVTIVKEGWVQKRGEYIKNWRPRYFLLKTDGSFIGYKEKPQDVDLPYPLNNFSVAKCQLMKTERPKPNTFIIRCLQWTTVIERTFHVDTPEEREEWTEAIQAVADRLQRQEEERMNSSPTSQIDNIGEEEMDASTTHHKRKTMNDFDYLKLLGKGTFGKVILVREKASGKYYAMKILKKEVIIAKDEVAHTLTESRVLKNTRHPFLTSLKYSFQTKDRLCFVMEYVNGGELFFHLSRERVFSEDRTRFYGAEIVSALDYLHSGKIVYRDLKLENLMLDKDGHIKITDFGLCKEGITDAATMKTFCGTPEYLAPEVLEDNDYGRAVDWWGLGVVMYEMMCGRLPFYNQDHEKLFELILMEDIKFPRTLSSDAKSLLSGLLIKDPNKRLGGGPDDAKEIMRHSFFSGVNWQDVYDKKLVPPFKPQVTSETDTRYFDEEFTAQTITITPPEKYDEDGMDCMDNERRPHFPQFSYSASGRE
T3 sequence (Q9Y243 whole entry): as the sequence (Q9Y243 whole entry C119S) above, with S119C counted along it
T2 sequence (P31751 whole entry): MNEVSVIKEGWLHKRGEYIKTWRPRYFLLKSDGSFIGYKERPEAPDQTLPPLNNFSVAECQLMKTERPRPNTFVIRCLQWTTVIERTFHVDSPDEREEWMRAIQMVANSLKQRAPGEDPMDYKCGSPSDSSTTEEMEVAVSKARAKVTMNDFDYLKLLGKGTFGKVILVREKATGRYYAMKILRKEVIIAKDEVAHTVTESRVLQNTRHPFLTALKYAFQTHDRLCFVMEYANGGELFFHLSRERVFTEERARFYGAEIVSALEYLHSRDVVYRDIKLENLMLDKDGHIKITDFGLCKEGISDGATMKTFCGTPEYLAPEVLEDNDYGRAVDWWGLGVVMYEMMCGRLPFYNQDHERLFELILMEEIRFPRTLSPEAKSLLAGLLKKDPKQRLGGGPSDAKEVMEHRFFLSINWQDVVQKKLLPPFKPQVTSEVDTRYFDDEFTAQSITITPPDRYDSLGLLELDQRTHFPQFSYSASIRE

Row | SMILES | Akt3(C119S) activity (FRET) during treatment (Akt3(C119S)) | Akt3(C119S) activity (FRET) after drug withdrawal (Akt3(C119S)) | effect on cell cycle (MDA-MB-468 cells [1]) | G1/G0 (percentage of cells in phase) (MDA-MB-468 cells [1]; drug at PI60, 72 hours) | G2/M (percentage of cells in phase) (MDA-MB-468 cells [1]; drug at PI60, 72 hours) | S (percentage of cells in phase) (MDA-MB-468 cells [1]; drug at PI60, 72 hours) | subG0 (percentage of cells in phase) (MDA-MB-468 cells [1]; drug at PI60, 72 hours) | G1/G0 (percentage of cells in phase) (MDA-MB-468 cells [1]; drug at PI80, 72 hours) | G2/M (percentage of cells in phase) (MDA-MB-468 cells [1]; drug at PI80, 72 hours) | S (percentage of cells in phase) (MDA-MB-468 cells [1]; drug at PI80, 72 hours) | subG0 (percentage of cells in phase) (MDA-MB-468 cells [1]; drug at PI80, 72 hours) | Akt2 activity (green/blue FRET ratio) during treatment (Halo-Akt2) | Akt3 activity (green/blue FRET ratio) during treatment (Halo-Akt3) | Akt3 activity (green/blue FRET ratio) after drug withdrawal (Halo-Akt3; 48 hours drug, then 24 hours withdrawal) | sensitization to toxicity relative to control knockdown cells (MDA-MB-468 cells [2]; [3]) | sensitization to toxicity relative to control knockdown cells (MDA-MB-468 cells [2]; Akt1 or Akt2 knockdown (approximately 40-60%), on average) | Fold Selectivity (MK-FNE vs MK-2206 sensitization by knockdown) (MDA-MB-468 cells [2]; siAKT1, two siRNAs) | Fold Selectivity (MK-FNE vs MK-2206 sensitization by knockdown) (MDA-MB-468 cells [2]; siAKT3, two siRNAs)
1 | C#CCCCC(O)/C=C/C(=O)NC1(c2ccc(-c3nc4ccn5c(=O)[nH]nc5c4cc3-c3ccccc3)cc2)CCC1.Cl (stereo not shown) [MK-HNE, (E)-8-(4-(1-(4-Hydroxynon-2-en-8-ynamido)cyclobutyl)phenyl)-3-oxo-9-phenyl-2,3-dihydro-[1,2,4]triazolo[3,4-f][1,6]naphthyridin-7-ium Chloride] | Akt inhibition was observed | no inhibition was observed | G1 arrest | 41.7 | 30.3 | 25.9 | 0.4 | 49 | 25.5 | 16.6 | 5.5 | – | – | – | – | – | – | –
2 | NC1(c2ccc(-c3nc4ccn5c(=O)[nH]nc5c4cc3-c3ccccc3)cc2)CCC1 [MK-2206] | Akt inhibition was observed | no inhibition was observed | – | 41.8 | 31.3 | 25.4 | 0.3 | 50.2 | 29.0 | 19.6 | 0.3 | decrease in green/blue fluorescence | decrease in green/blue fluorescence | returned to those observed in untreated cells | 2-3 fold | – | – | –
3 | C#CCCCC(F)/C=C/C(=O)NC1(c2ccc(-c3nc4ccn5c(=O)[nH]nc5c4cc3-c3ccccc3)cc2)CCC1.Cl (stereo not shown) [MK-FNE, (E)-8-(4-(1-(4-Fluoronon-2-en-8-ynamido)cyclobutyl)phenyl)-3-oxo-9-phenyl-2,3-dihydro-[1,2,4]triazolo[3,4-f][1,6]naphthyridin-7-ium Chloride] | – | – | G1 arrest | 47.0 | 33.3 | 18.6 | 0.5 | 58.9 | 27.0 | 11.9 | 0.8 | decrease in green/blue fluorescence | decrease in green/blue fluorescence | – | around 8 fold | around 2 fold | 0.5 and 0.4 | 3.9 and 3.7
